From ChEMBL document CHEMBL3632460, “Discovery of a Novel Series of Imidazo[1,2-a]pyrimidine Derivatives as Potent and Orally Bioavailable Lipoprotein-Associated Phospholipase A2 Inhibitors” (J Med Chem, 2015) come the findings set out here.

In series [1] the target is T1, Platelet-activating factor acetylhydrolase (Mus musculus) (UniProt Q60963).
T1 sequence (whole entry): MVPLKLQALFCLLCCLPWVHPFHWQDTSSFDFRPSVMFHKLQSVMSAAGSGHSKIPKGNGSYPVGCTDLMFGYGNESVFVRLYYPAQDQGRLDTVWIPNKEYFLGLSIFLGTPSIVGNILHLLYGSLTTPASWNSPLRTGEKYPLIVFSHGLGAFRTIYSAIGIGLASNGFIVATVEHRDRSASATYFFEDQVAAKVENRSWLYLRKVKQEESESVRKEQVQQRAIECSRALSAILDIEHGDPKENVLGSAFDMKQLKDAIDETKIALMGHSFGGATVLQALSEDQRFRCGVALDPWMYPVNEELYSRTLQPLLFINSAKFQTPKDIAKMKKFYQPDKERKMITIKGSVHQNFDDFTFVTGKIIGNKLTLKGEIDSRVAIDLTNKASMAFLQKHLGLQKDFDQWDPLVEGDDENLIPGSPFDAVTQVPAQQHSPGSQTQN
The conditions noted are these: Plasma, at 1 µM.
Description: Inhibition of Lp-PLA2 in mouse plasma at 1 uM using 2-thio-PAF substrate after 10 mins

Series [2] in a line: in vitro. The conditions noted are these: Wistar, rat, liver S9 fractions.
A short description of series [3]: in vitro. The conditions noted are these: human, liver S9 fractions.
Series [4] concerns Rattus norvegicus. Kind of series: In vivo inhibition of Lp-PLA2 in Sprague-Dawley rat at 25 mg/kg, po after 5 hrs. The format is functional.
The species entered for series [5] is Rattus norvegicus. The conditions noted are these: Sprague-Dawley, 25 mg/kg.
Description: In vivo inhibition of Lp-PLA2 in Sprague-Dawley rat at 25 mg/kg, po measured over 24 hrs
Series [6] is filed under the species Rattus norvegicus. The conditions noted are these: Sprague-Dawley, Plasma, 10 nM.
Description: Inhibition of Lp-PLA2 in Sprague-Dawley rat plasma at 10 nM using 2-thio-PAF substrate after 10 mins
The nature of series [7]: in vivo. The conditions noted are these: Sprague-Dawley, rat, po, 25 mg/kg.
Description: Cmax in Sprague-Dawley rat at 25 mg/kg, po after 48 hrs by LC-MS method
A short description of series [8]: in vivo. The conditions noted are these: Sprague-Dawley, rat, po, 25 mg/kg. The source holds these as a separate data set.
Description: AUC (0 to infinity) in Sprague-Dawley rat at 25 mg/kg, po after 48 hrs by LC-MS method
Series [9] can be described thus: in vivo. The conditions noted are these: Sprague-Dawley, rat, po, 25 mg/kg. The source holds these as a separate data set.
Description: Terminal half life in Sprague-Dawley rat at 25 mg/kg, po after 48 hrs by LC-MS method
A short description of series [10]: Cmax in Sprague-Dawley rat at 50 mg/kg, po after 48 hrs by LC-MS method. On the set-up: dose 50 mg/kg, route oral. The conditions noted are these: in vivo. The format is ADME, organism-based.
Series [11] is described as follows: AUC (0 to infinity) in Sprague-Dawley rat at 50 mg/kg, po after 48 hrs by LC-MS method. On the set-up: dose 50 mg/kg, route oral, time infinity. The conditions noted are these: in vivo. The format is ADME, organism-based.
Series [12] is described as follows: Terminal half life in Sprague-Dawley rat at 50 mg/kg, po after 48 hrs by LC-MS method. The format is ADME, organism-based. The conditions noted are these: in vivo, read-out: beta t1/2 (converted).
For series [13], the target named is T1, Platelet-activating factor acetylhydrolase (Mus musculus). The conditions noted are these: Plasma, at 100 nM.
Series [14] can be described thus: in vitro. The conditions noted are these: Wistar, rat, liver S9 fractions. This is another data set of the same source.
Series [15] can be described thus: in vitro. The conditions noted are these: human, liver S9 fractions. This is another data set of the same source.

Active and inactive are the calls of the source. The rule behind the calls is not given here.

For the molecule `Fc1cc(COc2ccn3c(-c4cncnc4)cnc3n2)cc(F)c1Oc1ccc(Cl)c(C(F)(F)F)c1`, in series [1], the inhibition (in general, the drop in the measured response relative to a control, in per cent) was found to be 8%. The half-life at 0.1 µM in the series “in vitro [2]” is 3.27 h; in the series “in vitro [3]”, 3.53 h.
Consider `Fc1cc(COc2ccn3c(-c4cncnc4)cnc3n2)ccc1Oc1ccc(Cl)c(C(F)(F)F)c1`, for which, in the series on Rattus norvegicus [4], the inhibition in vivo (in general, the drop in the measured response relative to a control, in per cent) at 25 mg/kg is 75%. Also, the inhibition result in the series listed under Rattus norvegicus [5] was “Active”. In addition, the inhibition in series [1] turned out to be 13%; in the series filed under Rattus norvegicus [6], 11%. Further, in the series “in vivo [7]”, the Cmax (in general, the peak of the concentration-time curve) at 48 h is 2600 ng/mL. In addition, in “in vivo [8]”, the AUC(0-inf) (usually total exposure, with the tail of the curve extrapolated) at 48 h amounted to 78100 ng·h/mL. Moreover, in “in vivo [9]”, the half-life at 48 h was 13.3 h. Further, the figures for the half-life at 0.1 µM in “in vitro [2]” and in “in vitro [3]” were 2.82 h and 5.52 h, respectively.
For the molecule `Cn1cc(-c2cnc3nc(OCc4ccc(Oc5ccc(Cl)c(C(F)(F)F)c5)cc4)ccn23)cn1`, the inhibition was 28% in series [1] and 13% in the series listed under Rattus norvegicus [6]. The molecule further showed a half-life at 0.1 µM in the series “in vitro [3]” of 3 h.
In series [10], `CCN(CC)CCN(Cc1ccc(-c2ccc(C(F)(F)F)cc2)cc1)C(=O)Cn1c(SCc2ccc(F)cc2)nc(=O)c2c1CCC2` [DARAPLADIB] showed a Cmax of 150 ng/mL. For the same molecule, the area under the curve AUC(0-inf) in [11] was 2110 ng·h/mL. Besides, the half-life in series [12] is 11.5 h. Also, the inhibition in series [13] amounted to 96%; in series [1], 99%.
In the series with Rattus norvegicus [4], `FC(F)(F)c1cc(Oc2ccc(COc3ccn4c(-c5cncnc5)cnc4n3)cc2)ccc1Cl` displayed an inhibition in vivo at 25 mg/kg of 75%. Moreover, the inhibition result in the series listed under Rattus norvegicus [5] is “Active”. In addition, the inhibition in [13] was found to be 10%; in [1] it was 56%; in the series listed under Rattus norvegicus [6] it was 10%. This molecule also gave a Cmax at 48 h in the series “in vivo [7]” of 3520 ng/mL. Moreover, the AUC(0-inf) at 48 h in the series “in vivo [8]” was found to be 88000 ng·h/mL. Moreover, the half-life at 48 h in the series “in vivo [9]” was 9.44 h. Moreover, the half-life at 0.1 µM stood at 5.8 h in “in vitro [2]” and 1.93 h in “in vitro [3]”.
Consider `N#Cc1cc(COc2ccn3c(-c4cncnc4)cnc3n2)ccc1Oc1ccc(Cl)c(C(F)(F)F)c1`, for which the inhibition in series [1] amounted to 0%; in the series listed under Rattus norvegicus [6], 14%. This molecule yielded a Cmax at 48 h in “in vivo [7]” of 1400 ng/mL. The same molecule registered an area under the curve AUC(0-inf) at 48 h in the series “in vivo [8]” of 16100 ng·h/mL. In the series “in vivo [9]”, this molecule gave a half-life at 48 h of 3.24 h. Also, the half-life at 0.1 µM in “in vitro [2]” stood at 0.667 h; in “in vitro [3]”, 1.77 h.
In the case of `FC(F)(F)c1cc(Oc2ccc(CCOc3ccn4c(-c5cncnc5)cnc4n3)cc2)ccc1Cl`, the results for the inhibition in [13] and in [1] were 2% and 53%, respectively. Also, the figures for the half-life at 0.1 µM in the series “in vitro [2]” and in the series “in vitro [3]” were 1.83 h and 0.7 h, respectively. Further, the results for the CLint scaled at 0.1 µM in the series “in vitro [14]” and in “in vitro [15]” were 34.3 mL/min/kg and 55.1 mL/min/kg, respectively.
